[C(1O2)] = PNA monomer with modified cytosine nucleobase C(1O2); [A(5)] = PNA monomer with modified adenine nucleobase A(5); [G(6)] = PNA monomer with modified guanine nucleobase G(6); {Fethoc} = Fethoc N-terminal cap of the PNA; {NH2} = C-terminal amide of the PNA
Tests used:
Assay type in all cases: cell-based
[1] = system: human TYR mRNA; test: Nested qPCR for TYR mRNA in human primary epidermal melanocytes; conditions: 1 zM to 10 aM, 5 hours, significant at 1 zM and 10 aM
Description: “ASO 1” was evaluated by TYR nested qPCR for its ability to induce changes in the TYR mRNA level in human primary epidermal melanocytes as follows.
[Cell Culture & ASO Treatment] Primary epidermal melanocytes (Cat. Number PCS-200-013, ATCC) cells were maintained in Dermal Cell Basal Medium (Cat Number PCS-200-030, ATCC) supplemented with Adult Melanocyte Growth Kit Component (Cat. Number PCS-200-042, ATCC). Melanocytes grown in 60 mm culture dish containing 5 mL culture medium were treated with “ASO 1” at 0 zM (negative control), 1 zM, 100 zM, or 10 aM. (3 culture dishes per concentration)
[RNA Extraction & cDNA Synthesis by One-step PCR] Following an incubation with “ASO 1” for 5 hours, total RNA was extracted using “RNeasy Mini Kit” (Cat. Number 74106, Qiagen) according to the manufacturer's instructions. 200 ng of RNA template was subjected to a 25 μL reverse transcription reaction using Super Script® One-Step RT-PCR kit with Platinum® Taq polymerase (Cat. No. 10928-042, Invitrogen) against a set of exon-specific primers of [exon 1_forward(2): (5′→3′) CTCTTTGTCTGGATGCATT; and exon 5_reverse: (5′→3′) CTGTGGTAATCCTCTTTCT] according to the following cycle conditions specified: 50° C., for 30 min and 94° C. for 2 min, which was followed by 15 cycles of 30 sec at 94° C., 30 sec at 50° C., and 1 min at 72° C.
(§1) [Nested PCR Amplification] […]

[2] = system: TYR protein; test: TYR protein expression by western blot in B16F10 mouse melanoma cells; conditions: 10 zM to 10 aM, 24 hours
Description: “ASO 1M” was evaluated for its ability to down-regulate the TYR protein expression in B16F10 mouse melanoma cells as described below.
B16F10 cells grown in 60 mm culture dish containing 5 mL DMEM were treated with “ASO 1M” at 0 zM (negative control), 10 zM, 100 zM, 1 aM or 10 aM. 24 hours later, cells were washed 2 times with cold PBS (phosphate buffered saline), and then subjected to lysis with 200 μl 1× cell lysis butler (Cat. No. 9803, Cell Signaling Tech) supplemented with 1× protease inhibitors cocktail (Cat. No. P8340, Sigma). 200 μl of each lysate in 1.5 mL e-tube was mixed with […] 5× sample buffer, and boiled at 100° C. for 5 min. 20 μl of the lysate was subjected to electrophoretic separation on a 4-15% gradient TGX gel (Cat No. 456-1086, Bio-Rad), and protein transfer on a 0.45 μm PVDF membrane. The membrane was probed with an anti-TYR antibody (Cat. No. 9319, Cell Signaling Tech) and anti-β-actin antibody (Cat. No. a3845, Sigma).

[3] = system: mouse TYR pre-mRNA; test: Exon skipping by nested PCR in B16F10 mouse melanoma cells; conditions: 1 to 1,000 aM, 5 hours, untreated cells gave full-length and exons 2-3 skipped bands
Description: [Cell Culture & ASO Treatment] B16F10 mouse melanoma cells (Cat. Number CRL-6475, ATCC) were maintained in DMEM (Dulbecco's modified Eagle's essential minimum medium) supplemented with 10% FBS, 1% streptomycin/penicillin, and 0.01 mg/ml bovine insulin. B16F10 cells grown in 60 mm culture dish containing 5 mL DMEM were incubated for 5 hours with “ASO 1M” at 0 (negative control), 1, 10,100 or 1000 aM.
[RNA Extraction & cDNA Synthesis by One-step PCR] Following an incubation for 5 hours, total RNA was extracted using “Universal RNA Extraction Kit” (Cat. Number 9767, Takara) according to the manufacturer's instructions. 200 ng of RNA template was used for a 25 μl reverse transcription reaction using Super Script® One-Step RT-PCR kit with Platinum® Taq polymerase (Cat. No. 10928-042, Invitrogen) against a set of exon-specific primers of [exon1_forward: (5′→3′) GTAAGTTTGGATTTGGGG; and exon 4_reverse: (5′→3′) AGAGC-GGTATGAAAGGAA] according to the following cycle conditions: 50° C. for 30 min and 94° C. for 2 min, followed by 15 cycles of 30 sec at 94° C. 30 sec at 52° C. and 40 sec at 72° C.
as §1
[Identification of Exon Skipping Products] […] The hands of target size were collected and analyzed by Sanger Sequencing.

[4] = system: mouse TYR mRNA; test: Nested qPCR for TYR mRNA in B16F10 mouse melanoma cells; conditions: 1 to 1,000 aM, 5 hours, normalized to no treatment, significant
Description: “ASO 1M” was evaluated by TYR nested qPCR for its ability to induce changes in the mouse TYR mRNA level in B16F10 cells as described below.
[Cell Culture & ASO Treatment] B16F10 cells grown in 60 mm culture dish containing 5 mL DMEM were treated with “ASO 1M” at 0 (negative control), 1, 10,100 or 1000 aM. (2 culture dishes per dose)
[RNA Extraction & cDNA Synthesis by One-step PCR] Following an incubation with “ASO 1M” for 5 hours, total RNA was extracted from cells using “Universal RNA Extraction Kit” (Cat. No. 9767, Takara) according to the manufacturer's instructions. 200 ng of RNA template were used for a 25 μl reverse transcription reaction using One Step RT-PCR kit (Invitrogen, USA) against a set of exon specific primers of [exon 1_forward: (5′→3′) GTAAGTTTGGATTTGGGG; and exon 4_reverse: (5′→3′) AGAGCGGTATGAAAGGAA] according to the following cycle conditions: 50° C. for 30 min and 94° C. for 2 min, followed by 15 cycles of 30 sec at 94° C., 30 sec at 52° C., and 40 sec at. 72° C.
[Nested qPCR Amplification] The cDNA solutions were diluted by 100 times, and 1 μl of each diluted PCR product was subjected to a 20 μl Real-Time PCR reaction with a Taqman probe set spanning the junction of exon 2 and exon 3 (Cat. No. Mm00495818_m1, Thermo Fisher Scientific) according to the following cycle conditions: 95° C. for 3 min followed by 30 cycles 10 sec at 95° C., and 30 sec at 60° C. […]

Substance | Decrease of full-length TYR mRNA level [1] | Band intensity of TYR expression versus negative control [2] | Exon skipping: PCR products by electrophoresis [3] | Decrease of full-length TYR mRNA level [4]
Fathoc-CA(5)G-ACA(5)-ATC(1O2)-TG(6)T-A(5)-NH2 (CAGACAATCTGTA; all peptide nucleic acid (PNA), [A(5)] at 2, 6, 13, [C(1O2)] at 9, [G(6)] at 11, 5' {Fethoc}, 3' {NH2}; further chemistry not given here) [ASO 1, 13-mer PNA derivative targeting the 3′ splice site of exon 2 in the human TYR pre-mRNA] | ~30% | – | – | –
Fethoc-CA(5)A-A(5)TG-A(5)TC(1O2)-TG(6)T-G-NH2 (CAAATGATCTGTG; all peptide nucleic acid (PNA), [A(5)] at 2, 4, 7, [C(1O2)] at 9, [G(6)] at 11, 5' {Fethoc}, 3' {NH2}; further chemistry not given here) [ASO 1M, 13-mer PNA derivative targeting the 3′ splice site of exon 2 in the mouse TYR pre-mRNA; surrogate for ASO 1] | – | considerably weaker | yielded only the splice variant TYR mRNA lacking exons 2 and 3 | ~40%
